Test results published in PMC2358886, “Evolution of pharmacologic specificity in the pregnane X receptor” (BMC Evolutionary Biology, 2008).
Entries after “also recorded” stand apart in the source; their conditions may differ. Where two headings read alike, the source gives them in different places.

Columns and labels:
Ciona VDR/PXR = assay: Activation of Ciona VDR/PXR (LBD/GAL4 chimeric receptor) luciferase reporter assay; assay type: cell-based, Ciona intestinalis; settings: screening, reference maximal activator 20 μM 6-formylindolo-[3,2-b]carbazole
From the text: The LBD of Ciona VDR/PXR was cloned from cDNA fragments generously provided by Professors Yuji Kohara and Norituki Satoh, and then inserted into the PM2-GAL4 plasmid to create an LBD/GAL4 chimeric receptor.
The LBD of Xenopus tropicalis (Western clawed frog) PXR (xtPXR) was cloned by PCR from RNA extracted from ovary of an adult female frog. Ciona VDR/PXR was cloned from cDNA fragments ciem829d05 and cilv048e18 provided by Professor Yuji Kohara (Center for Genetic Resource Information, National Institute of Genetics, Research Organization of Information and Systems, Mishima, Japan) and Professor Noriyuki Satoh (Kyoto University, Kyoto, Japan), with analysis of the cDNA clones supported by Grant-in-aid for Scientific Research on Priority Area "Genome" of Ministry of Education, Culture, Sports, Science and Technology, Japan.
The creation of a HepG2 (human liver) cell line stably expressing the human Na^+-taurocholate cotransporter (NTCP) has been previously reported. HepG2-NTCP cells were grown in modified Eagle's medium-α containing 10% fetal bovine serum and 1% penicillin/streptomycin (Invitrogen, Carlsbad, CA, USA). Plasmids containing cDNAs for 8 PXRs from 7 species (human, mouse, rat, rabbit, chicken [also called chicken X receptor, CXR], African clawed frog [also termed Xenopus laevis benzoate X receptors α and β, BXRα and BXRβ ], zebrafish), as well as the reporter constructs tk-UAS-Luc and CYP3A4-PXRE-Luc, and 'empty' vectors pCDNA, PsG5, and PM2 were generously provided by SA Kliewer, JT Moore, and LB Moore (GlaxoSmithKline, Research Triangle Park, NC, USA). […] For the full-length expression vectors, the reporter plasmid was CYP3A4-PXRE-Luc, a construct that contains a promoter element from CYP3A4 (recognized by PXR DBDs) driving luciferase expression. For the GAL4/LBD expression constructs, the reporter plasmid was tk-UAS-Luc, which contains GAL4 DNA binding elements driving luciferase expression. The following transfection ratios of reporter, receptor, and β-galactosidase plasmids were used (ng/well): human, mouse, rabbit, and rat PXRs – 25/2.7/20; chicken PXR – 10/1/20; Xenopus tropicalis PXR, zebrafish PXR, and Ciona VDR/PXR – 75/50/20.
The PXR activation assay was a luciferase-based reporter assay. On day 1, 30,000 cells/well were seeded onto 96-well white opaque plates (Corning-Costar, Corning, NY, USA). On day 2, cells were transfected using the calcium phosphate precipitation method with expression vector or 'empty' control vector and luciferase reporter plasmid. On day 3, the cells were washed and then incubated with medium containing charcoal-dextran treated fetal bovine serum (Hyclone, Logan, UT, USA) and drugs or vehicle. On day 4, the cells were washed and the medium replaced with serum-free medium. […]

rat PXR [1] = biological target: T1, rat PXR (Rattus norvegicus, UniProt Q9R1A7)
T1 sequence (Q9R1A7 1-431): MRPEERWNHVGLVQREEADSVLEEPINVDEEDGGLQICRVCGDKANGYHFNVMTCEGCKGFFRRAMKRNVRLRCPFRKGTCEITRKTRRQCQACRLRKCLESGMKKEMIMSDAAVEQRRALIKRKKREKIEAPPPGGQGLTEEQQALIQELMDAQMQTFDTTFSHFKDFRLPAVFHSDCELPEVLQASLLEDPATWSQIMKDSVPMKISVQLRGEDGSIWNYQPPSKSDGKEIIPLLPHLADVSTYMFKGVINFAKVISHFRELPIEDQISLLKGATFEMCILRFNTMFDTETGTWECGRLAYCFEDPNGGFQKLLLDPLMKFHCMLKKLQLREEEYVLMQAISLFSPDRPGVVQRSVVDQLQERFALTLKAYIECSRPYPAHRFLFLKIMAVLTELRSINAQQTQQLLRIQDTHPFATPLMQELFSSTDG

mouse PXR = biological target: T2, mouse PXR (Mus musculus, UniProt O54915)
T2 sequence (O54915 1-431): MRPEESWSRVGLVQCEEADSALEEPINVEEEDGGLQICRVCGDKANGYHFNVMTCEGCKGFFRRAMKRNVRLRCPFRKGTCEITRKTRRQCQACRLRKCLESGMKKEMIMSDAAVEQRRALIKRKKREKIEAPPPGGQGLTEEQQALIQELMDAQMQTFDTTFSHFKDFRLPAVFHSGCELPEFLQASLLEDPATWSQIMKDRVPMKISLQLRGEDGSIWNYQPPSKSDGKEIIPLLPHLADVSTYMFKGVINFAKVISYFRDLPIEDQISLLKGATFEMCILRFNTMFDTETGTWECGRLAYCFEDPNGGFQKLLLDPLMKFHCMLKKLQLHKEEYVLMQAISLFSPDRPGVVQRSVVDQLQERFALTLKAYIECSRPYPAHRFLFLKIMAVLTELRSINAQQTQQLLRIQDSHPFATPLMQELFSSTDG

chicken PXR [2] = biological target: T3, chicken PXR (Gallus gallus, UniProt Q9DFH3); settings: for Chicken PXR Activity: -log(EC50), EC50 in molar units
T3 sequence (Q9DFH3 1-391): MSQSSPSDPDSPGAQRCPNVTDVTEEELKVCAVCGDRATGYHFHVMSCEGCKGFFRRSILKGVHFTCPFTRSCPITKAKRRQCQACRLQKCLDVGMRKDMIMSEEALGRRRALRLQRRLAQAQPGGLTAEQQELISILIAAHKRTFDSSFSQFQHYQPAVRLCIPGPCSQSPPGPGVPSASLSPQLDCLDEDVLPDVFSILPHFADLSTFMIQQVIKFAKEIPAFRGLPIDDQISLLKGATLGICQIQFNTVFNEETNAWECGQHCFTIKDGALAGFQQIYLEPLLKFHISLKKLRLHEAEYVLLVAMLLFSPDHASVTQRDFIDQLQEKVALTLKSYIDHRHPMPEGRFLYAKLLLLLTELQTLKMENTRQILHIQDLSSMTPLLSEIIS

rabbit PXR [3] = biological target: T4, rabbit PXR (Oryctolagus cuniculus, UniProt Q9TU02)
T4 sequence (Q9TU02 1-411): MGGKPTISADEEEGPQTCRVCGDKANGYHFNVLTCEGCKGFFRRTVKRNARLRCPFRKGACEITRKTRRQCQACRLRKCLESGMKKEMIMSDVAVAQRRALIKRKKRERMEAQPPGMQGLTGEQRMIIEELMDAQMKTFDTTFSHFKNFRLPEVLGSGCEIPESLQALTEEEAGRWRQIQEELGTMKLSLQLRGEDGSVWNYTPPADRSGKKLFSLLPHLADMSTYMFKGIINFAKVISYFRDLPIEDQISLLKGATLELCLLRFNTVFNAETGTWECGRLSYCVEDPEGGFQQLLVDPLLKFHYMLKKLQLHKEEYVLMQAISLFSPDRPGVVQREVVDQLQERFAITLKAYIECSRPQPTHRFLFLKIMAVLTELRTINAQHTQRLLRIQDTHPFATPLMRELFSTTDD

chicken PXR [4] = biological target: T3, chicken PXR; assay: cell-based
zebrafish PXR [5] = biological target: T5, zebrafish PXR (Danio rerio, UniProt A5WYG8)
T5 sequence (A5WYG8 144-430): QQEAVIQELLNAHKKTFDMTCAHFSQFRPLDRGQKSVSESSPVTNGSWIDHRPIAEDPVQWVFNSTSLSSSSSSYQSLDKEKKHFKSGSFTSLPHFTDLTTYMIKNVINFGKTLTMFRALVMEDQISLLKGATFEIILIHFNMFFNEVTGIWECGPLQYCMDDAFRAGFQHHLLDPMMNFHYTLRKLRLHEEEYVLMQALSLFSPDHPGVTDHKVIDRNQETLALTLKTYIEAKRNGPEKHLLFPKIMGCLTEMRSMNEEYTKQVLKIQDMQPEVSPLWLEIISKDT

human PXR [6] = biological target: T6, human PXR (Homo sapiens, UniProt O75469)
T6 sequence (O75469 1-434): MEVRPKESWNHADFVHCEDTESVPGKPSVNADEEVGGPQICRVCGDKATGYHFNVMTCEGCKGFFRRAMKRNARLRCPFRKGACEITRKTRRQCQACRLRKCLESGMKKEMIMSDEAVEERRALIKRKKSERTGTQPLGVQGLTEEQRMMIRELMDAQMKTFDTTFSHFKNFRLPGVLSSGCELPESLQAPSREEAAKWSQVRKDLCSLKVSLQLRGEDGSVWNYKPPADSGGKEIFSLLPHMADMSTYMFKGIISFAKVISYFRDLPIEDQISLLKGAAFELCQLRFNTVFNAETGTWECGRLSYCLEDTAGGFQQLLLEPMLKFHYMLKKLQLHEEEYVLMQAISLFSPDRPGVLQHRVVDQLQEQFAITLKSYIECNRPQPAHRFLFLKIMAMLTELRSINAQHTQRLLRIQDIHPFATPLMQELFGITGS

rabbit PXR [7] = biological target: T4, rabbit PXR; assay: PXR activation luciferase reporter assay, rabbit PXR; settings: -log(EC50), EC50 in molar units
Xenopus tropicalis PXR = assay: Activation of Xenopus tropicalis PXR (GAL4-LBD chimeric construct) luciferase reporter assay; assay type: cell-based
Method: Cloning of the LBD of this PXR from adult female ovary and expression in a GAL4-LBD chimeric construct allowed for determination of ligand specificity.
The PXR activation assay was a luciferase-based reporter assay [17, 45]. On day 1, 30,000 cells/well were seeded onto 96-well white opaque plates (Corning-Costar, Corning, NY, USA). On day 2, cells were transfected using the calcium phosphate precipitation method with expression vector or 'empty' control vector and luciferase reporter plasmid. On day 3, the cells were washed and then incubated with medium containing charcoal-dextran treated fetal bovine serum (Hyclone, Logan, UT, USA) and drugs or vehicle. […]

rat PXR [8] = biological target: T1, rat PXR; assay: cell-based
chicken PXR [9] = biological target: T3, chicken PXR; assay: in vitro
zebrafish PXR [10] = biological target: T5, zebrafish PXR; assay: cell-based
human PXR [11] = biological target: T6, human PXR; assay: PXR activation luciferase reporter assay, human PXR in HepG2-NTCP cells; settings: hPXR Activity, -log(EC50), EC50 in molar units, activation of human PXR
[12] = -log(EC50), EC50 in molar units, activation of zebrafish PXR
[13] = -log(EC50), EC50 in molar units

6-formylindolo-[3,2-b]carbazole
Activation of Ciona VDR/PXR (in words) (Ciona VDR/PXR): low micromolar range; also recorded: robustly activated

C[C@H](CCC(=O)O)[C@H]1CC[C@H]2[C@@H]3C[C@@H](O)[C@@H]4C[C@H](O)CC[C@]4(C)[C@H]3CC[C@]12C [BI004, Murideoxycholic acid]
Rat PXR Activity (rat PXR [1]): 4.80 | Mouse PXR Activity (mouse PXR): 5.09 | Chicken PXR Activity (chicken PXR [2]): No effect | Rabbit PXR Activity (rabbit PXR [3]): 4.52

C[C@H](CCC(=O)O)[C@H]1CC[C@H]2[C@@H]3[C@H](O)C[C@@H]4C[C@H](O)CC[C@]4(C)[C@H]3CC[C@]12C [BI005, Chenodeoxycholic acid]
EC50 (chicken PXR [4]): 20 µM | Rat PXR Activity (rat PXR [1]): No effect | Chicken PXR efficacy, ε (chicken PXR [2]; chicken): 4.70 (ε = 0.36) | Rabbit PXR efficacy, ε (rabbit PXR [3]; rabbit): 4.70 (ε = 0.42)

C[C@H](CCC(O)C(CO)COS(=O)(=O)O)[C@H]1CC[C@H]2[C@@H]3[C@H](O)C[C@@H]4C[C@H](O)CC[C@]4(C)[C@H]3C[C@H](O)[C@]12C (stereo partly drawn) [BI034, 5β-Cholestan-3α,7α,12α,24,26-pentol-27-sulfate]
zfPXR Efficacy (zebrafish PXR [5]): 0.13 | zfPXR Activity (zebrafish PXR [5]; [12]): 4.35 | Activation of zebrafish PXR (in words) (zebrafish PXR [5]; bile salts): activated | Rat PXR efficacy, ε (rat PXR [1]): 0.85 | Rat PXR Activity (rat PXR [1]; [13]): 4.40 | hPXR Efficacy (human PXR [6]): 0.39 | Mouse PXR efficacy, ε (mouse PXR): 0.85 | Mouse PXR Activity (mouse PXR; [13]): 4.44 | Toxicity (HepG2 cells): 200 µM | Chicken PXR efficacy, ε (chicken PXR [2]): 0.88 | Chicken PXR Activity (chicken PXR [2]): 4.37 | Rabbit PXR efficacy, ε (rabbit PXR [3]): 1.93 | Rabbit PXR Activity (rabbit PXR [7]): 4.09

CC(CCC[C@@H](C)[C@H]1CC[C@H]2[C@@H]3[C@H](O)C[C@@H]4C[C@H](O)CC[C@]4(C)[C@H]3C[C@H](O)[C@]12C)C(=O)NCCS(=O)(=O)O (stereo partly drawn) [BI038, 3α,7α,12αtTrihydroxy-5β-cholestan-27-oic acid, taurine conjugated]
zfPXR Activity (zebrafish PXR [5]; [12]): None | Rat PXR Activity (rat PXR [1]): No effect | hPXR Activity (human PXR [6]): None | Mouse PXR Activity (mouse PXR): No effect | Toxicity (HepG2 cells): 200 µM | Chicken PXR Activity (chicken PXR [2]): No effect | Rabbit PXR Activity (rabbit PXR [3]): No effect

CCCCOC(=O)c1ccc(N)cc1 [MI4, n-Butyl-4-aminobenzoate]
zfPXR Efficacy (zebrafish PXR [5]; zebrafish): 0.69 | Activation of Xenopus tropicalis PXR (in words) (Xenopus tropicalis PXR): activates | hPXR Efficacy (human PXR [6]; human): 1.35 | Toxicity (HepG2 cells; human, 24 hr): 100 µM | EC50 (rat PXR [8]): > 100 µM | Activation of Ciona VDR/PXR (in words) (Ciona VDR/PXR; listed as n-butyl p-aminobenzoate): Weaker activation | Activation of Ciona VDR/PXR (in words) (Ciona VDR/PXR; listed as n-butyl-p-aminobenzoate): micromolar range | EC50 (chicken PXR [9]): > 100 µM | EC50 (zebrafish PXR [10]): 13.8 µM

NC(=O)N1c2ccccc2C=Cc2ccccc21 [MI7, Carbamazepine]
zfPXR Activity (zebrafish PXR [5]): None | EC50 (human PXR [11]): 63.1 µM | Toxicity (HepG2 cells; human, 24 hr): 200 µM | Activation of Ciona VDR/PXR (in words) (Ciona VDR/PXR): micromolar range; also recorded: Weaker activation
